{
  "source": "patent US20240369544A1",
  "about": "“MULTIVALENT GLYCAN SCAFFOLDS AND METHODS OF USE THEREOF” (NovAb, Inc., priority 2021, published 2024)",
  "molecules": {"B1": {"name": "GP100120-dendrimer: synthetic fibroin glycopeptide GP100120 (GAT*ES*RGAGAGA-NH2) conjugated to 8-arm-PEG-NHS (7 arms NHS, 1 arm biotin) (peptide)", "peptide": "GAT(GalNAcα)ESRGAGAGA-NH2", "modifications": "not fully specified (residue 5); printed as GAT*ES*RGAGAGA-NH2; also: coupled through a primary amine to NHS arm of 8-arm PEG (7 NHS arms, 1 biotin arm), multivalent, copy number not given here", "notes": "The dendrimer was captured on streptavidin magnetic beads by its biotin; also called GP100121 glycopeptide dendrimer; GP100121 dendrimer"}},
  "key": {"anti-H3 antibody": {"target": "anti-H3 antibody", "test": "Dissociation constant of monomer H3:anti-H3 antibody interaction", "type": "binding"}, "[1]": {"system": "O13 YSD cells (yeast cells expressing the lamprey O13 VLRB anti-H3 antibody on their surface)", "type": "binding", "description": "The O13 YSD cells were then washed 3 times with ice-cold TSM-BSA, then resuspended in 250 μL TMS-BSA to which 1 μL of PI was added to stain live/dead cells. 125 μL of each sample were used for flow cytometry measurements."}, "[2]": {"target": "T1, Peanut agglutinin lectin (PNA) (Arachis hypogaea, UniProt P02872)", "T1 sequence (P02872 whole entry, looked up)": "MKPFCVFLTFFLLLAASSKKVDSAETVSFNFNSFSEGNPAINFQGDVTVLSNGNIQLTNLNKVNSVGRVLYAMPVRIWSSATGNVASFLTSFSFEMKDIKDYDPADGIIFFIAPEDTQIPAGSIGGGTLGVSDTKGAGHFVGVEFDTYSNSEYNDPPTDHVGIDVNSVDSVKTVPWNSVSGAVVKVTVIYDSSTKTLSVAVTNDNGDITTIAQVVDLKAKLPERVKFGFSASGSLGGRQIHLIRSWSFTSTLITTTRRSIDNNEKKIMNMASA", "test": "Lectin assay of dendrimers on magnetic beads, PNA", "type": "binding", "conditions": "dendrimers coupled to streptavidin magnetic beads; lectin at 2 μg/mL pre-complexed with Avidin-HRP", "description": "(§1) The Avidin-HRP was purchased from SouthemBiotech. […] 3 μL of dendrimer beads were used per assay."}, "[3]": {"system": "Vicia Villosa lectin (VVL)", "test": "Lectin assay of dendrimers on magnetic beads, VVL", "type": "binding", "conditions": "dendrimers coupled to streptavidin magnetic beads; lectin at 2 μg/mL pre-complexed with Avidin-HRP", "description": "as §1"}, "[4]": {"target": "T2, Peanut agglutinin lectin (PNA), biotinylated, Vector Laboratories (Peanut, UniProt P02872 24-259, limits assumed, biotinylated (sites not given))", "T2 construct": "Lectin, described as specific for galactose as found in T-antigen; It was pre-complexed with Avidin-HRP for the assay", "T2 sequence (looked up)": "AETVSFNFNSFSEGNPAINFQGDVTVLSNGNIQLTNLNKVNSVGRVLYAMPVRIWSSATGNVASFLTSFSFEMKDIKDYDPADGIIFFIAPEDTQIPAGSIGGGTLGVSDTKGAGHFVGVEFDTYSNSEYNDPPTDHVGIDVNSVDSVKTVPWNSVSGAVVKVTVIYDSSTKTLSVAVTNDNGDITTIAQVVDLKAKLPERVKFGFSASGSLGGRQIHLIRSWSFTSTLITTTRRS", "test": "lectin assay: dendrimer on streptavidin magnetic beads, biotinylated lectin pre-complexed with Avidin-HRP, TMB read-out"}},
  "note": "Where no end group is shown, it is not given here. The star is where a group is joined. αGalNAc = CC(=O)N[C@@H]1[C@@H](O)[C@@H](O)[C@@H](CO)O[C@@H]1*; GalNAcα = O-linked α-N-acetylgalactosamine",
  "data": [
    {"molecule": "CC(=O)N[C@H]1C(O)O[C@H](CO)[C@@H](O[C@@H]2O[C@H](CO)[C@H](O)[C@H](O)[C@H]2O[C@@H]2O[C@@H](C)[C@@H](O)[C@@H](O)[C@@H]2O)[C@@H]1O", "note": "(stereo partly drawn) [monomer H3, Blood group H type 2 trisaccharide]", "values": [
      {"measurement": "Kd", "setting": "anti-H3 antibody", "result": 2000, "unit": "nM"},
      {"measurement": "koff of monomer H3:anti-H3 antibody complex", "setting": "anti-H3 antibody; from Kd=koff/kon with kon 10^6 M^−1 s^−1", "result": 2, "unit": "s⁻¹"},
      {"measurement": "binding by O13 YSD cells (flow cytometry)", "setting": "[1]", "result": "not detected"}
    ]},
    {"molecule": "GP100120-dendrimers: Synthetic fibroin glycopeptide GP100120 (GAT*ES*RGAGAGA-NH2, GalNAc on Ser and Thr, SEQ ID NO:5) conjugated to 8-arm-PEG-NHS compound (GAT(αGalNAc)ES(αGalNAc)RGAGAGA-NH2; also: conjugated to 8-arm-PEG-NHS (dendrimer), site not given here)", "values": [
      {"measurement": "reactivity to PNA lectin", "setting": "[2]", "result": "negative"},
      {"measurement": "reactivity to VVL lectin", "setting": "[3]", "result": "positive"}
    ]},
    {"molecule": "B1", "values": [
      {"measurement": "binding result", "setting": "[4]", "result": "no binding (tested: 2 µg/mL)"}
    ]}
  ]
}
